We go through 14 molecules from ChEMBL document CHEMBL1201862, “PubChem BioAssay data set” (2004).

The structures appear in SMILES notation.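 How tested: cells in 96-well plates exposed to compound for 48 hours at five concentrations. Abbreviation: GI50, concentration required for 50% inhibition of growth.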 Activity calls are given as the source filed them. No stated cut-off is given here; in the data, active = GI50 up to about 1.1 µM and inactive = higher.

Some test systems named below: MOLT-4; UACC-62; CAKI-1; SNB-75; TK-10; SK-MEL-2; M14; IGROV-1; OVCAR-3; HCT-116; SN12C; CCRF-CEM; HT-29; U-251; LXFL 529; NCI-H522.
Test in all cases: DTP human tumour cell line panel, 48 h

By GI50 is commonly meant the concentration that inhibits growth by half. In the case of `COc1nc(NC2OC(COC(C)=O)C(OC(C)=O)C(OC(C)=O)C2OC(C)=O)c(/N=C(\C)C(C)=O)c(=O)n1C` (stereo not drawn), the GI50 with MOLT-4, in the assay with UACC-62, in the assay with CAKI-1, in the assay on SNB-75, with TK-10 and in the assay with SK-MEL-2 was > 100 µM (inactive) throughout. For the same molecule, the GI50 with M14, in the assay on IGROV-1, with OVCAR-3, in the assay on HCT-116, in the assay with SN12C and in the assay on CCRF-CEM was > 100 µM (inactive) throughout. For the same molecule, the GI50 with HT-29, in the assay on U-251 and in the assay on LXFL 529 was > 100 µM (inactive) each time.
Consider `O=c1[nH]c(=O)n(C2CC(O)C(CO)O2)cc1/C=C/Br` (stereo not drawn), for which the GI50 in the assay with MOLT-4, in the assay on UACC-62, with CAKI-1, in the assay with TK-10, in the assay on SK-MEL-2 and with M14 was > 100 µM (inactive) throughout. Further, the GI50 in the assay on IGROV-1, with SN12C, in the assay with CCRF-CEM, in the assay with HT-29, in the assay with U-251 and in the assay on NCI-H522 was > 100 µM (inactive) in each case. Also, the GI50 in the assay with LXFL 529 was > 100 µM (inactive).
`O=C(c1c(O)cc(O)cc1O)C1Cc2ccccc21` (stereo not drawn): the GI50 was > 100 µM (inactive) with MOLT-4; > 100 µM (inactive) in the assay on UACC-62; 39.5 µM (inactive) in the assay on CAKI-1; 13.4 µM (inactive) in the assay with SNB-75; > 100 µM (inactive) in the assay with TK-10; > 100 µM (inactive) with SK-MEL-2. Also, the GI50 with M14 is > 100 µM (inactive); with IGROV-1, > 100 µM (inactive); in the assay on HCT-116 it was 86.5 µM (inactive); in the assay on SN12C, > 100 µM (inactive); with CCRF-CEM it was > 100 µM (inactive); in the assay with HT-29, > 100 µM (inactive). Besides, the GI50 in the assay with U-251 was 47.2 µM (inactive); in the assay with NCI-H522, 10.3 µM (inactive); with LXFL 529 it was > 100 µM (inactive).
For `O=C1CCC2(c3ccc(Cl)cc3)Nc3ncccc3N12` (stereo not drawn), the GI50 in the assay on MOLT-4 was > 100 µM (inactive); in the assay on UACC-62 it was > 100 µM (inactive); with CAKI-1, > 100 µM (inactive); in the assay on SNB-75, 79.8 µM (inactive); in the assay on TK-10, > 100 µM (inactive); in the assay on SK-MEL-2 it was > 100 µM (inactive). In addition, the GI50 in the assay on M14, in the assay on IGROV-1, in the assay on OVCAR-3, with SN12C, with CCRF-CEM and in the assay on HT-29 was > 100 µM (inactive) in each case. The GI50 in the assay on U-251, with NCI-H522 and in the assay on LXFL 529 was > 100 µM (inactive) throughout.
In the case of `CC1=CC=NN2C(=O)[C@H](C)C2C1` (stereo partly drawn), the GI50 in the assay on MOLT-4, in the assay on UACC-62, in the assay on SNB-75, in the assay with TK-10, in the assay with SK-MEL-2 and in the assay with M14 was > 100 µM (inactive) throughout. The GI50 with IGROV-1, in the assay with OVCAR-3, in the assay with HCT-116, with SN12C, in the assay on CCRF-CEM and in the assay on HT-29 was > 100 µM (inactive) throughout. Further, the GI50 in the assay with U-251, in the assay with NCI-H522 and in the assay on LXFL 529 was > 100 µM (inactive) each time.
Turning to `CCOC(=O)C1C(=S)NC(=O)C1C#N` (stereo not drawn), the GI50 with MOLT-4, in the assay on UACC-62, with CAKI-1, in the assay with SNB-75, with TK-10 and in the assay with SK-MEL-2 was > 100 µM (inactive) in each case. Also, the GI50 with M14, with IGROV-1, in the assay on OVCAR-3, in the assay with SN12C, with CCRF-CEM and in the assay with HT-29 was > 100 µM (inactive) in each case. Further, the GI50 in the assay with U-251, in the assay with NCI-H522 and in the assay with LXFL 529 was > 100 µM (inactive) throughout.
For `CC(=O)N1CCC2(c3ccccc3N(C(C)=O)C2c2ccc(O)cc2)C1C(=O)O` (stereo not drawn), the GI50 in the assay on MOLT-4, in the assay on UACC-62, in the assay with SNB-75, in the assay on TK-10, in the assay with SK-MEL-2 and with M14 was > 100 µM (inactive) throughout. For the same molecule, the GI50 in the assay on OVCAR-3, in the assay with HCT-116, in the assay with SN12C, in the assay on CCRF-CEM, with HT-29 and in the assay with U-251 was > 100 µM (inactive) throughout. Also, the GI50 with NCI-H522 and in the assay on LXFL 529 was > 100 µM (inactive) each time.
For the molecule `CC(C)(C)OC1=C(OC(C)(C)C)C(O)(c2ccccc2)C1=O` (stereo not drawn), the GI50 in the assay with MOLT-4, in the assay on UACC-62, with SNB-75, with TK-10, with M14 and in the assay with IGROV-1 was > 100 µM (inactive) throughout. For the same molecule, the GI50 with OVCAR-3, with SN12C, in the assay with CCRF-CEM, in the assay with HT-29, in the assay with U-251 and in the assay on LXFL 529 was > 100 µM (inactive) throughout.
As for `Cc1c2cc[n+](C)cc2c(C)c2c1[nH]c1ccc(OCC(F)(F)F)cc12`, the GI50 with MOLT-4 is 2.61 µM (inactive); with UACC-62, 6.82 µM (inactive); with CAKI-1, 8.34 µM (inactive); in the assay with SK-MEL-2, 3.4 µM (inactive); in the assay with IGROV-1, 2.27 µM (inactive); in the assay on OVCAR-3, 2.59 µM (inactive). The GI50 was 3.95 µM (inactive) in the assay on HCT-116; 0.277 µM (active) in the assay on SN12C; 4.16 µM (inactive) with CCRF-CEM; 2.28 µM (inactive) with HT-29; 0.256 µM (active) with U-251; 1.63 µM (inactive) with NCI-H522. In the assay on LXFL 529, the GI50 is 0.501 µM (active).
As to `CC(=O)OC1(C#N)CC2OC1C1C2N1C(=O)OC(C)(C)C` (stereo not drawn), the GI50 with MOLT-4, with UACC-62, in the assay with CAKI-1, in the assay on SNB-75, with TK-10 and with SK-MEL-2 was > 100 µM (inactive) in each case. Besides, the GI50 in the assay on M14, in the assay on IGROV-1, with HCT-116, in the assay with SN12C, with CCRF-CEM and in the assay on U-251 was > 100 µM (inactive) throughout. Moreover, the GI50 with NCI-H522 and in the assay with LXFL 529 was > 100 µM (inactive) in each case.
For the molecule `CC(C)(c1cn(Cc2ccccc2)c2ccccc12)c1cn(Cc2ccccc2)c2ccccc12`, the GI50 with MOLT-4 was > 100 µM (inactive); in the assay on UACC-62 it was > 100 µM (inactive); in the assay with CAKI-1 it was > 100 µM (inactive); with SNB-75 it was 17.3 µM (inactive); in the assay on M14 it was > 100 µM (inactive); in the assay on IGROV-1, > 100 µM (inactive). In addition, the GI50 with OVCAR-3 was > 100 µM (inactive); in the assay on HCT-116, > 100 µM (inactive); in the assay with SN12C, 1.7 µM (inactive); with CCRF-CEM it was > 100 µM (inactive); with HT-29 it was > 100 µM (inactive); with U-251 it was > 100 µM (inactive). Further, the GI50 with NCI-H522 is 76.9 µM (inactive); in the assay on LXFL 529 it was > 100 µM (inactive).
Take `Nc1ncnc2sc(Nc3ccccc3)nc12`: the GI50 in the assay with MOLT-4 was > 100 µM (inactive); with UACC-62 it was > 100 µM (inactive); in the assay with CAKI-1 it was 55.5 µM (inactive); with SNB-75, 29.6 µM (inactive); with TK-10, 46.9 µM (inactive); with SK-MEL-2, > 100 µM (inactive). Besides, the GI50 in the assay on M14 is 92 µM (inactive); with IGROV-1, 32.2 µM (inactive); with OVCAR-3, > 100 µM (inactive); in the assay on SN12C, 80.4 µM (inactive); with HT-29, 7.28 µM (inactive); with U-251, 56.6 µM (inactive). Also, the GI50 was 28 µM (inactive) in the assay on NCI-H522 and > 100 µM (inactive) in the assay with LXFL 529.
Take `CN(C)c1ccc(/C=c2/sc3nc(=O)c(-c4ccccc4NC(=O)C(F)(F)F)nn3c2=O)cc1`: the GI50 with MOLT-4, in the assay on UACC-62, in the assay on CAKI-1, with SNB-75, with TK-10 and in the assay with SK-MEL-2 was > 100 µM (inactive) each time. Further, the GI50 with M14, in the assay on IGROV-1, with OVCAR-3, in the assay on SN12C, with CCRF-CEM and in the assay with HT-29 was > 100 µM (inactive) each time. Besides, the GI50 with U-251 was 53.3 µM (inactive); in the assay with NCI-H522, > 100 µM (inactive); in the assay with LXFL 529, > 100 µM (inactive).
As to `CSc1c(C)c(C)nn1-c1ccccc1`, the GI50 in the assay on MOLT-4 was > 100 µM (inactive); in the assay with UACC-62, > 100 µM (inactive); with CAKI-1 it was > 100 µM (inactive); with SNB-75, 58.2 µM (inactive); with TK-10, > 100 µM (inactive); in the assay on SK-MEL-2, > 100 µM (inactive). Moreover, the GI50 in the assay on M14, in the assay with IGROV-1, in the assay on SN12C, in the assay on CCRF-CEM, in the assay on HT-29 and in the assay on U-251 was > 100 µM (inactive) throughout. The GI50 with NCI-H522 and with LXFL 529 was > 100 µM (inactive) throughout.
